Test results published in patent publication US9133158B2, “Bicyclic dihydroisoquinoline-1-one derivatives” (Hoffmann-La Roche Inc., priority 2011, dated 2015).

What was measured:
human CYP11B2 = target: T1, human CYP11B2 (Homo sapiens, UniProt P19099); assay: G-402 cellular enzyme assay, human CYP11B2 (aldosterone release, HTRF); assay type: cell-based; settings: G-402 cells, 1 μM Deoxycorticosterone
T1 construct: expressed in transfected cells
T1 sequence (P19099 25-503): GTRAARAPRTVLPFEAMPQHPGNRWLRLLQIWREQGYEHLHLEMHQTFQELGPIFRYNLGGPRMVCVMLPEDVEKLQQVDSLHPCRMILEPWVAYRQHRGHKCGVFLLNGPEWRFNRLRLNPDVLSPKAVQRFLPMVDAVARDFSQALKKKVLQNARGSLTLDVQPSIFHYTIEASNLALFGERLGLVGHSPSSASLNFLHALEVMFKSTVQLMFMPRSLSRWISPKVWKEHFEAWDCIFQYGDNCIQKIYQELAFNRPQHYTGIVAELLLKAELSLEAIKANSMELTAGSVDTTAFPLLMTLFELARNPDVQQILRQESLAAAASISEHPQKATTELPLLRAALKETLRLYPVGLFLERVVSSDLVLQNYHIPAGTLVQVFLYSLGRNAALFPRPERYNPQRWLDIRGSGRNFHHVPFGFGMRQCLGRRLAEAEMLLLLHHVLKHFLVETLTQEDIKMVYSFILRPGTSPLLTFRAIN
Summary of the method: (§1)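 Inhibition of steroid release was taken as enzyme inhibition. CYP11B1 assays used 1 μM deoxycortisol with cortisol detection, CYP11B2 assays 1 μM deoxycorticosterone with aldosterone detection, both by HTRF after 16 h in stable G-402 cells; EC50 from least-squares MMF fit.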

human CYP11B1 = target: T2, human CYP11B1 (Homo sapiens, UniProt P15538); assay: G-402 cellular enzyme assay, human CYP11B1 (cortisol release, HTRF); assay type: cell-based; settings: G-402 cells, 1 μM Deoxycortisol
T2 construct: expressed in transfected cells
T2 sequence (P15538 25-503): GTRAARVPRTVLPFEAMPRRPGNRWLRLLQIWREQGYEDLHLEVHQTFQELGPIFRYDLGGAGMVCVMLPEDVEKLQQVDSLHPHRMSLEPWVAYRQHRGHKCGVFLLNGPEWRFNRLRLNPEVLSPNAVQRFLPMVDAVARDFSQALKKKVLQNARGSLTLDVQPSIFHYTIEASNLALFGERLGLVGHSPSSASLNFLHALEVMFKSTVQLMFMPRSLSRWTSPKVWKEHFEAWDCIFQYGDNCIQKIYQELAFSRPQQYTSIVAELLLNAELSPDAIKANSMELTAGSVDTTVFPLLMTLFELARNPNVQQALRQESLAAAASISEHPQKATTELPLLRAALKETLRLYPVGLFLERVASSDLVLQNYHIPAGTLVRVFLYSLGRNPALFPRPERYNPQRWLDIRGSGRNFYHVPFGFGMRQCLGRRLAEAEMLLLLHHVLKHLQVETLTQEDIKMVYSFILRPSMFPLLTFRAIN
Summary of the method: as §1

Row | Structure (SMILES) | EC50 (human CYP11B2) | EC50 (human CYP11B1)
1 | O=C1c2ccc(Cl)cc2CCN1c1cncc(Cn2ccnc2C(F)(F)F)c1 [Example 189, 6-Chloro-2-[5-(2-trifluoromethyl-imidazol-1-ylmethyl)-pyridin-3-yl]-3,4-dihydro-2H-isoquinolin-1-one] | 55.3 nM | 710 nM
2 | CCc1nccn1Cc1cncc(N2CCc3cc(Cl)ccc3C2=O)c1 [Example 191, 6-Chloro-2-[5-(2-ethyl-imidazol-1-ylmethyl)-pyridin-3-yl]-3,4-dihydro-2H-isoquinolin-1-one] | 394 nM | 8550 nM
3 | CC(C)OCc1cncc(N2CCc3cc(Cl)ccc3C2=O)c1 [Example 194, 6-Chloro-2-(5-isopropoxymethyl-pyridin-3-yl)-3,4-dihydro-2H-isoquinolin-1-one] | 20.3 nM | 224 nM
4 | CC(OCc1cncc(N2CCc3cc(Cl)ccc3C2=O)c1)C(F)(F)F (centres unmarked) [Example 195, 6-Chloro-2-[5-(2,2,2-trifluoro-1-methyl-ethoxymethyl)-pyridin-3-yl]-3,4-dihydro-2H-isoquinolin-1-one] | 37.3 nM | 486 nM
5 | CN1CCCC1CCOCc1cncc(N2CCc3cc(Cl)ccc3C2=O)c1 (centres unmarked) [Example 196, 6-Chloro-2-{5-[2-(1-methyl-pyrrolidin-2-yl)-ethoxymethyl]-pyridin-3-yl}-3,4-dihydro-2H-isoquinolin-1-one] | 178 nM | 1030 nM
6 | O=C1c2ccc(Cl)cc2CCN1c1cncc(COC2CCCC2)c1 [Example 197, 6-Chloro-2-(5-cyclopentyloxymethyl-pyridin-3-yl)-3,4-dihydro-2H-isoquinolin-1-one] | 46.8 nM | 555 nM
7 | O=C1c2ccc(Cl)cc2CCN1c1cncc(COCC2CC2)c1 [Example 198, 6-Chloro-2-(5-cyclopropylmethoxymethyl-pyridin-3-yl)-3,4-dihydro-2H-isoquinolin-1-one] | 2450 nM | 990 nM
8 | CC1(COCc2cncc(N3CCc4cc(Cl)ccc4C3=O)c2)CC1 [Example 200, 6-Chloro-2-[5-(1-methyl-cyclopropylmethoxymethyl)-pyridin-3-yl]-3,4-dihydro-2H-isoquinolin-1-one] | 32.5 nM | 315 nM
9 | O=C1c2ccc(Cl)cc2CCN1c1cncc(COCC2CCCO2)c1 (centres unmarked) [Example 201, 6-Chloro-2-[5-(tetrahydro-furan-2-ylmethoxymethyl)-pyridin-3-yl]-3,4-dihydro-2H-isoquinolin-1-one] | 30.4 nM | 293 nM
10 | O=C1c2ccc(Cl)cc2CCN1c1cncc(COCC(F)(F)F)c1 [Example 202, 6-Chloro-2-[5-(2,2,2-trifluoro-ethoxymethyl)-pyridin-3-yl]-3,4-dihydro-2H-isoquinolin-1-one] | 65.3 nM | 473 nM
11 | O=C1c2ccc(Cl)cc2CCN1c1cncc(COC2CCC2)c1 [Example 203, 6-Chloro-2-(5-cyclobutoxymethyl-pyridin-3-yl)-3,4-dihydro-2H-isoquinolin-1-one] | 22.4 nM | 212 nM
12 | O=C1c2ccc(Cl)cc2CCN1c1cncc(Cc2ccc(N3CCOCC3)nc2)c1 [Example 207, 6-Chloro-2-[5-(6-morpholin-4-yl-pyridin-3-ylmethyl)-pyridin-3-yl]-3,4-dihydro-2H-isoquinolin-1-one] | 2.8 nM | 18.2 nM

Next, values leading:

Row | EC50 (human CYP11B2) | EC50 (human CYP11B1) | Structure (SMILES)
13 | 328 nM | 7320 nM | Cc1ccn(Cc2cncc(N3CCc4cc(Cl)ccc4C3=O)c2)n1 [Example 190, 6-Chloro-2-[5-(3-methyl-pyrazol-1-ylmethyl)-pyridin-3-yl]-3,4-dihydro-2H-isoquinolin-1-one]
14 | 2200 nM | 10300 nM | NCc1cncc(N2CCc3cc(Cl)ccc3C2=O)c1 [Example 192, 2-(5-Aminomethyl-pyridin-3-yl)-6-chloro-3,4-dihydro-2H-isoquinolin-1-one]
15 | 20.1 nM | 217 nM | COCc1cncc(N2CCc3cc(Cl)ccc3C2=O)c1 [Example 193, 6-Chloro-2-(5-methoxymethyl-pyridin-3-yl)-3,4-dihydro-2H-isoquinolin-1-one]
16 | 104 nM | 282 nM | O=C1c2ccc(Cl)cc2CCN1c1cncc(COc2ccccc2F)c1 [Example 199, 6-Chloro-2-[5-(2-fluoro-phenoxymethyl)-pyridin-3-yl]-3,4-dihydro-2H-isoquinolin-1-one]
17 | 40.8 nM | 900 nM | Cc1noc(C)c1Cc1cncc(N2CCc3cc(Cl)ccc3C2=O)c1 [Example 204, 6-Chloro-2-[5-(3,5-dimethyl-isoxazol-4-ylmethyl)-pyridin-3-yl]-3,4-dihydro-2H-isoquinolin-1-one]
18 | 0.5 nM | 0.6 nM | CS(=O)(=O)c1ccc(Cc2cncc(N3CCc4cc(Cl)ccc4C3=O)c2)cc1 [Example 205, 6-Chloro-2-[5-(4-methanesulfonyl-benzyl)-pyridin-3-yl]-3,4-dihydro-2H-isoquinolin-1-one]
19 | 1.7 nM | 6.8 nM | Cc1ccc(Cc2cncc(N3CCc4cc(Cl)ccc4C3=O)c2)cn1 [Example 206, 6-Chloro-2-[5-(6-methyl-pyridin-3-ylmethyl)-pyridin-3-yl]-3,4-dihydro-2H-isoquinolin-1-one]
20 | 2.1 nM | 18.9 nM | Cn1nccc1Cc1cncc(N2CCc3cc(Cl)ccc3C2=O)c1 [Example 208, 6-Chloro-2-[5-(2-methyl-2H-pyrazol-3-ylmethyl)-pyridin-3-yl]-3,4-dihydro-2H-isoquinolin-1-one]
21 | 0.9 nM | 14.7 nM | Cn1cc(Cc2cncc(N3CCc4cc(Cl)ccc4C3=O)c2)cn1 [Example 209, 6-Chloro-2-[5-(1-methyl-1H-pyrazol-4-ylmethyl)-pyridin-3-yl]-3,4-dihydro-2H-isoquinolin-1-one]
22 | 18.6 nM | 130 nM | O=C1c2ccc(Cl)cc2CCN1c1cncc(Cc2cccc(F)c2F)c1 [Example 210]
23 | 4.4 nM | 53.2 nM | O=C1c2ccc(Cl)cc2CCN1c1cncc(Cc2cc(F)cc(F)c2)c1 [Example 211, 6-Chloro-2-[5-(3,5-difluoro-benzyl)-pyridin-3-yl]-3,4-dihydro-2H-isoquinolin-1-one]
24 | 8.4 nM | 81.6 nM | O=C1c2ccc(Cl)cc2CCN1c1cncc(Cc2cc(F)ccc2F)c1 [Example 212, 6-Chloro-2-[5-(2,5-difluoro-benzyl)-pyridin-3-yl]-3,4-dihydro-2H-isoquinolin-1-one]
25 | 39.1 nM | 278 nM | O=C1c2ccc(Cl)cc2CCN1c1cncc(Cc2ccccc2C(F)(F)F)c1 [Example 213, 6-Chloro-2-[5-(2-trifluoromethyl-benzyl)-pyridin-3-yl]-3,4-dihydro-2H-isoquinolin-1-one]
26 | 63.6 nM | 300 nM | O=C1c2ccc(Cl)cc2CCN1c1cncc(Cc2c(Cl)cccc2Cl)c1 [Example 214, 6-Chloro-2-[5-(2,6-dichloro-benzyl)-pyridin-3-yl]-3,4-dihydro-2H-isoquinolin-1-one]
27 | 29.6 nM | 137 nM | O=C1c2ccc(Cl)cc2CCN1c1cncc(Cc2c(F)cccc2Cl)c1 [Example 215, 6-Chloro-2-[5-(2-chloro-6-fluoro-benzyl)-pyridin-3-yl]-3,4-dihydro-2H-isoquinolin-1-one]
28 | 38.1 nM | 364 nM | O=C1c2ccc(Cl)cc2CCN1c1cncc(Cc2ccc(Cl)c(Cl)c2)c1 [Example 216, 6-Chloro-2-[5-(3,4-dichloro-benzyl)-pyridin-3-yl]-3,4-dihydro-2H-isoquinolin-1-one]
